Experimental data reported in patent publication US20100298141A1, “SUBSTITUTED PYRIDINE N-OXIDE HERBICIDES” (E. I. DU PONT DE NEMOURS AND COMPANY, priority 2007, published 2010).

Columns and labels:
corn = assay: Test G preemergence test; type: in vivo, Zea mays; details: scale 0 to 100
eastern black nightshade = assay: Test G preemergence test; type: in vivo, Solanum ptycanthum; details: scale 0 to 100
millet foxtail = assay: Test G preemergence test; type: in vivo, Setaria italica; details: scale 0 to 100
soybean = assay: Test G preemergence test; type: in vivo, Glycine max; details: scale 0 to 100
lambsquarters = assay: Test G preemergence test; type: in vivo, Chenopodium album; details: scale 0 to 100
rice = assay: Test B flooded paddy test; type: in vivo, Oryza sativa; details: Flood, 250 g ai/ha, 13 to 15 days; scale 0 to 100, 0 no effect, 100 complete control
How it was run: (§1)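 Test compounds are applied straight into paddy water held 3 cm above the soil surface, with that flood maintained for the whole test. After 13 to 15 days in the greenhouse, each species is scored visually relative to controls.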

winter wheat = assay: Test D preemergence test; type: in vivo, Triticum aestivum; details: scale 0 to 100
How it was run: (§2)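 Preemergence application to planted seeds; compounds in non-phytotoxic solvent blend plus surfactant. Dash = not tested.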

winter barley = assay: Test D preemergence test; type: in vivo, Hordeum vulgare
How it was run: as §2

field violet = assay: Test D preemergence test; type: in vivo, Viola arvensis; details: scale 0 to 100
How it was run: as §2

woolly cupgrass = assay: Test G preemergence test; type: in vivo, Eriochloa villosa; details: scale 0 to 100
barnyardgrass [1] = assay: Test B flooded paddy test; type: in vivo, Echinochloa crus-galli; details: Flood, 250 g ai/ha, 13 to 15 days; scale 0 to 100, 0 no effect, 100 complete control
How it was run: as §1

duck salad = assay: Test B flooded paddy test; type: in vivo, Heteranthera limosa; details: Flood, 250 g ai/ha, 13 to 15 days; scale 0 to 100, 0 no effect, 100 complete control
How it was run: as §1

green foxtail = assay: Test D preemergence test; type: in vivo, Setaria viridis; details: scale 0 to 100
How it was run: as §2

littleseed canarygrass = assay: Test D preemergence test; type: in vivo, Phalaris minor; details: scale 0 to 100
How it was run: as §2

broadleaf signalgrass = assay: Test G preemergence test; type: in vivo, Brachiaria platyphylla; details: scale 0 to 100
windgrass = assay: Test D preemergence test; type: in vivo, Apera spica-venti; details: scale 0 to 100
How it was run: as §2

barnyardgrass [2] = assay: Test G preemergence test; type: in vivo, Echinochloa crus-galli; details: scale 0 to 100
large crabgrass = assay: Test G preemergence test; type: in vivo, Digitaria sanguinalis; details: scale 0 to 100
millet = assay: Test G preemergence test; type: in vivo, Panicum miliaceum; details: scale 0 to 100
annual bluegrass = assay: Test D preemergence test; type: in vivo, Poa annua; details: scale 0 to 100
How it was run: as §2

umbrella sedge = assay: Test B flooded paddy test; type: in vivo, Cyperus difformis; details: Flood, 250 g ai/ha, 13 to 15 days; scale 0 to 100, 0 no effect, 100 complete control
How it was run: as §1

goosegrass = assay: Test G preemergence test; type: in vivo, Eleusine indica; details: scale 0 to 100
tall waterhemp = assay: Test G preemergence test; type: in vivo, Amaranthus tuberculatos; details: scale 0 to 100
field sandbur = assay: Test G preemergence test; type: in vivo, Cenchrus incertus; details: scale 0 to 100
giant foxtail = assay: Test G preemergence test; type: in vivo, Setaria faberii; details: scale 0 to 100
wild oat = assay: Test D preemergence test; type: in vivo, Avena fatua; details: scale 0 to 100
How it was run: as §2

Cn1nc(C(F)(F)F)c(CS(=O)(=O)c2ccc(Cl)c[n+]2[O-])c1OC(F)F [Compound 7]
90: Plant response rating, Ducksalad (duck salad) | Plant response rating, Signalgrass (broadleaf signalgrass; 125 g ai/ha) | Plant response rating, Crabgrass, Large (large crabgrass; 250 g ai/ha) | Plant response rating, Umbrella Sedge (umbrella sedge) | Plant response rating, Goosegrass (goosegrass; 62 g ai/ha)
20: Plant response rating, Foxtail, Green (green foxtail; 62 g ai/ha) | Plant response rating, Foxtail, Green (green foxtail; 125 g ai/ha) | Plant response rating, Canarygrass (littleseed canarygrass; 125 g ai/ha) | Plant response rating, Crabgrass, Large (large crabgrass; 125 g ai/ha) | Plant response rating, Foxtail, Giant (giant foxtail; 62 g ai/ha)
80: Plant response rating, Cupgrass, Woolly (woolly cupgrass; 250 g ai/ha) | Plant response rating, Barnyardgrass (barnyardgrass [1])
30: Plant response rating, Field Violet (field violet; 250 g ai/ha)
55: Plant response rating, Foxtail, Millet (millet foxtail; 125 g ai/ha) | Plant response rating, Foxtail, Millet (millet foxtail; 250 g ai/ha) | Plant response rating, Foxtail, Green (green foxtail; 250 g ai/ha) | Plant response rating, Millet (millet; 62 g ai/ha) | Plant response rating, Foxtail, Giant (giant foxtail; 250 g ai/ha)
75: Plant response rating, Cupgrass, Woolly (woolly cupgrass; 125 g ai/ha) | Plant response rating, Sandbur (field sandbur; 250 g ai/ha)
35: Plant response rating, Signalgrass (broadleaf signalgrass; 62 g ai/ha)
25: Plant response rating, Foxtail, Giant (giant foxtail; 125 g ai/ha)
0: Plant response rating, Corn (corn; 31 g ai/ha) | Plant response rating, Corn (corn; 62 g ai/ha) | Plant response rating, Corn (corn; 125 g ai/ha) | Plant response rating, Corn (corn; 250 g ai/ha) | Plant response rating, Nightshade (eastern black nightshade; 31 g ai/ha) | Plant response rating, Nightshade (eastern black nightshade; 62 g ai/ha) | Plant response rating, Nightshade (eastern black nightshade; 125 g ai/ha) | Plant response rating, Nightshade (eastern black nightshade; 250 g ai/ha) | Plant response rating, Foxtail, Millet (millet foxtail; 31 g ai/ha) | Plant response rating, Foxtail, Millet (millet foxtail; 62 g ai/ha) | Plant response rating, Soybean (soybean; 31 g ai/ha) | Plant response rating, Soybean (soybean; 62 g ai/ha) | Plant response rating, Soybean (soybean; 125 g ai/ha) | Plant response rating, Soybean (soybean; 250 g ai/ha) | Plant response rating, Lambsquarters (lambsquarters; 31 g ai/ha) | Plant response rating, Lambsquarters (lambsquarters; 62 g ai/ha) | Plant response rating, Lambsquarters (lambsquarters; 125 g ai/ha) | Plant response rating, Wheat, Winter (winter wheat; 31 g ai/ha) | Plant response rating, Wheat, Winter (winter wheat; 62 g ai/ha) | Plant response rating, Wheat, Winter (winter wheat; 125 g ai/ha) | Plant response rating, Wheat, Winter (winter wheat; 250 g ai/ha) | Plant response rating, Barley (winter barley; Preemergence, 62 g ai/ha, scale 0 to 100) | Plant response rating, Barley (winter barley; Preemergence, 125 g ai/ha, scale 0 to 100) | Plant response rating, Barley (winter barley; Preemergence, 31 g ai/ha, scale 0 to 100) | Plant response rating, Barley (winter barley; preemergence, 250 g ai/ha, scale 0 (no effect) to 100 (complete control)) | Plant response rating, Field Violet (field violet; 31 g ai/ha) | Plant response rating, Field Violet (field violet; 62 g ai/ha) | Plant response rating, Field Violet (field violet; 125 g ai/ha) | Plant response rating, Cupgrass, Woolly (woolly cupgrass; 31 g ai/ha) | Plant response rating, Foxtail, Green (green foxtail; 31 g ai/ha) | Plant response rating, Canarygrass (littleseed canarygrass; 31 g ai/ha) | Plant response rating, Canarygrass (littleseed canarygrass; 62 g ai/ha) | Plant response rating, Barnyardgrass (barnyardgrass [2]; 31 g ai/ha) | Plant response rating, Crabgrass, Large (large crabgrass; 31 g ai/ha) | Plant response rating, Crabgrass, Large (large crabgrass; 62 g ai/ha) | Plant response rating, Millet (millet; 31 g ai/ha) | Plant response rating, Bluegrass (annual bluegrass; 31 g ai/ha) | Plant response rating, Bluegrass (annual bluegrass; 62 g ai/ha) | Plant response rating, Sandbur (field sandbur; 31 g ai/ha) | Plant response rating, Sandbur (field sandbur; 62 g ai/ha) | Plant response rating, Sandbur (field sandbur; 125 g ai/ha) | Plant response rating, Foxtail, Giant (giant foxtail; 31 g ai/ha) | Plant response rating, Oat, Wild (wild oat; 31 g ai/ha) | Plant response rating, Oat, Wild (wild oat; 62 g ai/ha) | Plant response rating, Oat, Wild (wild oat; 125 g ai/ha) | Plant response rating, Oat, Wild (wild oat; 250 g ai/ha)
95: Plant response rating, Bluegrass (annual bluegrass; 250 g ai/ha)
50: Plant response rating, Goosegrass (goosegrass; 31 g ai/ha)
60: Plant response rating, Cupgrass, Woolly (woolly cupgrass; 62 g ai/ha) | Plant response rating, Barnyardgrass (barnyardgrass [2]; 125 g ai/ha) | Plant response rating, Waterhemp (tall waterhemp; 62 g ai/ha)
70: Plant response rating, Rice, Transplanted (rice)
15: Plant response rating, Lambsquarters (lambsquarters; 250 g ai/ha) | Plant response rating, Signalgrass (broadleaf signalgrass; 31 g ai/ha) | Plant response rating, Barnyardgrass (barnyardgrass [2]; 62 g ai/ha) | Plant response rating, Waterhemp (tall waterhemp; 31 g ai/ha)
100: Plant response rating, Canarygrass (littleseed canarygrass; 250 g ai/ha) | Plant response rating, Signalgrass (broadleaf signalgrass; 250 g ai/ha) | Plant response rating, Windgrass (windgrass; 62 g ai/ha) | Plant response rating, Windgrass (windgrass; 125 g ai/ha) | Plant response rating, Windgrass (windgrass; 250 g ai/ha) | Plant response rating, Barnyardgrass (barnyardgrass [2]; 250 g ai/ha) | Plant response rating, Millet (millet; 250 g ai/ha) | Plant response rating, Goosegrass (goosegrass; 125 g ai/ha) | Plant response rating, Goosegrass (goosegrass; 250 g ai/ha) | Plant response rating, Waterhemp (tall waterhemp; 125 g ai/ha) | Plant response rating, Waterhemp (tall waterhemp; 250 g ai/ha)
65: Plant response rating, Windgrass (windgrass; 31 g ai/ha) | Plant response rating, Bluegrass (annual bluegrass; 125 g ai/ha)
85: Plant response rating, Millet (millet; 125 g ai/ha)
